Experimental data as given in PubChem BioAssay AID1919016 (Molecular Pharmacology Branch, DTP, NCI, 2023).

Test system: NCI-H196 complex spheroid growth, percent test/control
Test: Anticancer human tumor NCI-H196 cell line growth inhibition [AhR];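 note: seven days of drug exposure starting three days after plating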;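 for viability, T/C: 100% = DMSO vehicle control wells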
Details: for IC50: curve of first compound; for viability, T/C: stronger effect = lower value
Outline: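 Spheroids combined tumor cells with HUVEC endothelial cells and human MSCs as stroma. AhR antagonists were paired with standard or investigational drugs, each dosed in half-log steps down from near clinical Cmax, or from 10 microM where Cmax was unknown.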

[1] = second compound 0.1 µM, first compound 0.0316 µM
[2] = second compound 0.1 µM, first compound 0.1 µM
[3] = second compound 0.1 µM, first compound 0.316 µM
[4] = second compound 0.1 µM, first compound 1 µM
[5] = second compound 0.1 µM, first compound 3.16 µM
[6] = second compound 0.1 µM, first compound 10 µM
[7] = second compound 0.316 µM, first compound 0.0316 µM
[8] = second compound 0.316 µM, first compound 0.1 µM
[9] = second compound 0.316 µM, first compound 0.316 µM
[10] = second compound 0.316 µM, first compound 1 µM
[11] = second compound 0.316 µM, first compound 3.16 µM
[12] = second compound 0.316 µM, first compound 10 µM
[13] = second compound 1 µM, first compound 0.0316 µM
[14] = second compound 1 µM, first compound 0.1 µM
[15] = second compound 1 µM, first compound 0.316 µM
[16] = second compound 1 µM, first compound 1 µM
[17] = second compound 1 µM, first compound 3.16 µM
[18] = second compound 1 µM, first compound 10 µM
[19] = second compound 3.16 µM, first compound 0.0316 µM
[20] = second compound 3.16 µM, first compound 0.1 µM
[21] = second compound 3.16 µM, first compound 0.316 µM
[22] = second compound 3.16 µM, first compound 1 µM
[23] = second compound 3.16 µM, first compound 3.16 µM
[24] = second compound 3.16 µM, first compound 10 µM
[25] = second compound 10 µM, first compound 0.0316 µM
[26] = second compound 10 µM, first compound 0.1 µM
[27] = second compound 10 µM, first compound 0.316 µM
[28] = second compound 10 µM, first compound 1 µM
[29] = second compound 10 µM, first compound 3.16 µM
[30] = second compound 10 µM, first compound 10 µM

Compound | IC50 (second compound 0.1 µM) [µM] | IC50 (second compound 0.316 µM) [µM] | IC50 (second compound 1 µM) [µM] | IC50 (second compound 3.16 µM) [µM] | IC50 (second compound 10 µM) [µM] | viability, T/C [1] [%] | viability, T/C [2] [%] | viability, T/C [3] [%] | viability, T/C [4] [%] | viability, T/C [5] [%] | viability, T/C [6] [%] | viability, T/C [7] [%] | viability, T/C [8] [%] | viability, T/C [9] [%] | viability, T/C [13] [%] | viability, T/C [14] [%] | viability, T/C [19] [%] | viability, T/C [20] [%] | viability, T/C [25] [%] | viability, T/C [26] [%] | further results
COc1cc(Nc2ncc3c(n2)-c2ccc(Cl)cc2C(c2c(F)cccc2OC)=NC3)ccc1C(=O)O + CC(CO)NC(=O)c1cc(-c2ccc(Cl)cc2)nn(-c2cnn(C)c2)c1=O | > 10 | > 10 | > 10 | > 10 | > 10 | 91.5 | 107 | 116 | 112 | 111 | 138 | 103 | 106 | 119 | 101 | 98.9 | 107 | 108 | 107 | 109 | viability, T/C [10]: 113%; viability, T/C [11]: 127%; viability, T/C [12]: 116%; viability, T/C [15]: 112%; viability, T/C [16]: 111%; viability, T/C [17]: 136%; viability, T/C [18]: 134%; viability, T/C [21]: 121%; viability, T/C [22]: 115%; viability, T/C [23]: 130%; viability, T/C [24]: 132%; viability, T/C [27]: 126%; viability, T/C [28]: 122%; viability, T/C [29]: 127%; viability, T/C [30]: 131%
Cn1ncnc1C1c2n[nH]c(=O)c3cc(F)cc(c23)NC1c1ccc(F)cc1 (stereo not given) + CC(CO)NC(=O)c1cc(-c2ccc(Cl)cc2)nn(-c2cnn(C)c2)c1=O | > 0.1 | > 0.1 | > 0.1 | > 0.1 | > 0.1 | 113 | 103 |  |  |  |  | 101 | 105 |  | 114 | 109 | 103 | 107 | 108 | 104 | viability, T/C (second compound 0.1 µM, first compound 0.000316 µM): 111%; viability, T/C (second compound 0.1 µM, first compound 0.001 µM): 107%; viability, T/C (second compound 0.1 µM, first compound 0.00316 µM): 103%; viability, T/C (second compound 0.1 µM, first compound 0.01 µM): 102%; viability, T/C (second compound 0.316 µM, first compound 0.000316 µM): 104%; viability, T/C (second compound 0.316 µM, first compound 0.001 µM): 109%; viability, T/C (second compound 0.316 µM, first compound 0.00316 µM): 102%; viability, T/C (second compound 0.316 µM, first compound 0.01 µM): 99.2%; viability, T/C (second compound 1 µM, first compound 0.000316 µM): 113%; viability, T/C (second compound 1 µM, first compound 0.001 µM): 112%; viability, T/C (second compound 1 µM, first compound 0.00316 µM): 104%; viability, T/C (second compound 1 µM, first compound 0.01 µM): 105%; viability, T/C (second compound 3.16 µM, first compound 0.000316 µM): 106%; viability, T/C (second compound 3.16 µM, first compound 0.001 µM): 119%; viability, T/C (second compound 3.16 µM, first compound 0.00316 µM): 118%; viability, T/C (second compound 3.16 µM, first compound 0.01 µM): 104%; viability, T/C (second compound 10 µM, first compound 0.000316 µM): 122%; viability, T/C (second compound 10 µM, first compound 0.001 µM): 111%; viability, T/C (second compound 10 µM, first compound 0.00316 µM): 110%; viability, T/C (second compound 10 µM, first compound 0.01 µM): 103%
NS(=O)(=O)OCC1CC(n2ccc3c(NC4CCc5ccccc54)ncnc32)CC1O (stereo not given) + CC(CO)NC(=O)c1cc(-c2ccc(Cl)cc2)nn(-c2cnn(C)c2)c1=O | > 10 | > 10 | > 10 | > 10 | > 10 | 85.4 | 79.8 | 67.1 | 61.3 | 62.9 | 60.2 | 82.8 | 85.2 | 68.8 | 87.2 | 74.4 | 81.4 | 83.7 | 90.7 | 96.9 | viability, T/C [10]: 59.2%; viability, T/C [11]: 52.5%; viability, T/C [12]: 55.7%; viability, T/C [15]: 67.6%; viability, T/C [16]: 57.5%; viability, T/C [17]: 61.2%; viability, T/C [18]: 51.4%; viability, T/C [21]: 71.1%; viability, T/C [22]: 56.4%; viability, T/C [23]: 62.9%; viability, T/C [24]: 55.4%; viability, T/C [27]: 83.8%; viability, T/C [28]: 59.2%; viability, T/C [29]: 54%; viability, T/C [30]: 52.4%
O=C(C=Cc1cccc(S(=O)(=O)Nc2ccccc2)c1)NO + CC(CO)NC(=O)c1cc(-c2ccc(Cl)cc2)nn(-c2cnn(C)c2)c1=O | 1.63 | 1.77 | 2.02 | 1.75 | 1.81 | 107 | 92.2 | 91.3 | 72.2 | 21.6 | 1.02 | 109 | 98.1 | 98.9 | 101 | 99.5 | 108 | 109 | 119 | 106 | viability, T/C [10]: 71.2%; viability, T/C [11]: 28%; viability, T/C [12]: 0.59%; viability, T/C [15]: 102%; viability, T/C [16]: 83.7%; viability, T/C [17]: 28.5%; viability, T/C [18]: 0.5%; viability, T/C [21]: 102%; viability, T/C [22]: 74.1%; viability, T/C [23]: 24.3%; viability, T/C [24]: 0.54%; viability, T/C [27]: 99.9%; viability, T/C [28]: 75.1%; viability, T/C [29]: 26.9%; viability, T/C [30]: 0.56%
